Experimental data reported in PubChem BioAssay AID328 (DTP/NCI, 2004).
Several values for one entry are separate records, joined by “and”; a condition that tells them apart may be missing. Equal values may be shown once. Inconclusive results and toxic doses are left out.

System: BDF1 mice, P388 leukemia ip, median survival T/C
Test: NCI In Vivo Anticancer Drug Screen. Data for tumor model P388 Leukemia (intraperitoneal) in B6D2F1 (BDF1) mice
Conditions: endpoint: median survival time, higher = longer survival
Outline: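 Vehicle-dosed animals serve as the reference; survival of compound-dosed, tumour-implanted mice is divided by it.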

[1] = dose: 12.5 mg/kg/injection, schedule: Q01DX009 (ip), vehicle: saline with Tween-80
[2] = dose: 25.0 mg/kg/injection, schedule: Q01DX009 (ip), vehicle: saline with Tween-80
[3] = dose: 50.0 mg/kg/injection, schedule: Q01DX009 (ip), vehicle: saline with Tween-80

Cc1ccc(NC(=O)N(CCCl)N=O)c(C)c1
T/C (dose: 6.25 mg/kg/injection, schedule: Q01DX009 (ip), vehicle: saline with Tween-80): 90 % of control | T/C [1]: 159 % of control | T/C [2]: 118 % of control

CC(O)(c1ccc(Cl)cc1)C(c1ccccc1)c1ccccn1 (stereo not drawn)
T/C (dose: 25.0 mg/kg/injection, schedule: Q01DX009 (ip), vehicle: water): 101 % of control | T/C (dose: 50.0 mg/kg/injection, schedule: Q01DX009 (ip), vehicle: water): 109 % of control | T/C (dose: 100.0 mg/kg/injection, schedule: Q01DX009 (ip), vehicle: water): 86 % of control | T/C (dose: 200.0 mg/kg/injection, schedule: Q01DX009 (ip), vehicle: water): 109 % of control | T/C (dose: 400.0 mg/kg/injection, schedule: Q01DX009 (ip), vehicle: water): 99 % of control

Nc1ccc(C(OC(=O)c2cc3ccccc3c(Cc3c(O)c(C(=O)OC(c4ccc(N)cc4)(c4ccc(N)cc4)c4ccc(N)cc4)cc4ccccc34)c2O)(c2ccc(N)cc2)c2ccc(N)cc2)cc1
T/C [1]: 150 % of control

CCC1/C=C/C=C/CC(C)C(O)C(C)(O)C(=O)C(C)C(O)C(C)C(=O)C(C)C(O)C(C)/C=C/C(=O)OC2C(C)C(CC1)OC1(OC(CC(C)O)C(C)CC1=O)C2C (stereo not drawn) (tested in a mixture with another compound)
T/C (dose: 0.15 mg/kg/injection, schedule: Q01DX010 (ip), vehicle: carboxymethylcellulose (CMC)): 110 % of control | T/C (dose: 0.15 mg/kg/injection, schedule: Q01DX010 (ip), vehicle: saline): 109 % of control | T/C (dose: 0.3 mg/kg/injection, schedule: Q01DX010 (ip), vehicle: carboxymethylcellulose (CMC)): 110 % of control | T/C (dose: 0.3 mg/kg/injection, schedule: Q01DX010 (ip), vehicle: saline): 150 % of control and 154 % of control | T/C (dose: 0.6 mg/kg/injection, schedule: Q01DX010 (ip), vehicle: carboxymethylcellulose (CMC)): 120 % of control | T/C (dose: 0.6 mg/kg/injection, schedule: Q01DX010 (ip), vehicle: saline): 154 % of control | T/C (dose: 1.2 mg/kg/injection, schedule: Q01DX010 (ip), vehicle: carboxymethylcellulose (CMC)): 190 % of control | T/C (dose: 1.2 mg/kg/injection, schedule: Q01DX010 (ip), vehicle: saline): 163 % of control | T/C (dose: 2.5 mg/kg/injection, schedule: Q01DX009 (ip), vehicle: saline): 154 % of control | T/C (dose: 2.5 mg/kg/injection, schedule: Q01DX010 (ip), vehicle: saline): 154 % of control | T/C (dose: 5.0 mg/kg/injection, schedule: Q01DX009 (ip), vehicle: saline): 163 % of control | T/C (dose: 37.0 micrograms/kg/injection, schedule: Q01DX010 (ip), vehicle: saline): 120 % of control | T/C (dose: 150.0 micrograms/kg/injection, schedule: Q01DX010 (ip), vehicle: saline): 150 % of control

Oc1ccccc1C=NC1CCCCC1.Oc1ccccc1C=NC1CCCCC1.[Cu+2]
T/C (dose: 100.0 mg/kg/injection, schedule: Q01DX001 (ip), vehicle: saline sonified): 90 % of control | T/C (dose: 200.0 mg/kg/injection, schedule: Q01DX001 (ip), vehicle: saline sonified): 90 % of control | T/C (dose: 400.0 mg/kg/injection, schedule: Q01DX001 (ip), vehicle: saline sonified): 109 % of control

CC(O)COCc1ccccc1 (stereo not drawn)
T/C (dose: 100.0 mg/kg/injection, schedule: Q04DX003 (ip), vehicle: saline): 100 % of control | T/C (dose: 200.0 mg/kg/injection, schedule: Q04DX003 (ip), vehicle: saline): 87 % of control | T/C (dose: 400.0 mg/kg/injection, schedule: Q04DX003 (ip), vehicle: saline): 108 % of control

NC(c1ccccc1)S(=O)(=O)O (stereo not drawn)
T/C [3]: 115 % of control | T/C (dose: 100.0 mg/kg/injection, schedule: Q01DX009 (ip), vehicle: saline with Tween-80): 121 % of control | T/C (dose: 200.0 mg/kg/injection, schedule: Q01DX009 (ip), vehicle: saline with Tween-80): 93 % of control | T/C (dose: 400.0 mg/kg/injection, schedule: Q01DX009 (ip), vehicle: saline with Tween-80): 95 % of control

CSc1ccc(NC(=O)CCl)cc1
T/C [1]: 107 % of control | T/C [2]: 105 % of control | T/C [3]: 106 % of control

Oc1ccc2ccc3[nH]cnc3c2c1
T/C (dose: 50.0 mg/kg/injection, schedule: Q01DX009 (ip), vehicle: Klucel (hydroxypropylcellulose) (HPC)): 95 % of control | T/C (dose: 100.0 mg/kg/injection, schedule: Q01DX009 (ip), vehicle: Klucel (hydroxypropylcellulose) (HPC)): 95 % of control | T/C (dose: 200.0 mg/kg/injection, schedule: Q01DX009 (ip), vehicle: Klucel (hydroxypropylcellulose) (HPC)): 100 % of control
